Measured values reported in ChEMBL document CHEMBL5442219.

How the values were obtained:
Details in all cases: Compound concentration 10 µM
[1] = molecular target: T1, 5-hydroxytryptamine receptor 3A (Homo sapiens) (UniProt P46098)
T1 sequence (whole entry): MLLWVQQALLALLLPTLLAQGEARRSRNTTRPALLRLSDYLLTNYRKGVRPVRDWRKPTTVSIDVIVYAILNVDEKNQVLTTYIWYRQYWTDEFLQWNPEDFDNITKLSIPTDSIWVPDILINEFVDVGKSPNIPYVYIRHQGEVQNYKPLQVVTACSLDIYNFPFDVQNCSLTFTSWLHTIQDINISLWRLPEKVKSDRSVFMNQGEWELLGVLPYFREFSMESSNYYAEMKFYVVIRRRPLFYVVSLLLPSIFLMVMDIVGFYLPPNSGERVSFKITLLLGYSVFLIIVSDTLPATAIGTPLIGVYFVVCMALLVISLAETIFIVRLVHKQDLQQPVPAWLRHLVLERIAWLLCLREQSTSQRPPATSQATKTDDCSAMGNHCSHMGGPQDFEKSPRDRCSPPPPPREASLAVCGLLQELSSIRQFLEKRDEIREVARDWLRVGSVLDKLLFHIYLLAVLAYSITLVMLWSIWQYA
Description: PDSP Primary Binding target: HTR3A - Compounds are tested at 10 uM concentration, plate are incubated at room temperature in the dark for 90 minutes. Reaction are stopped by vacuum filtration onto 0.3% polyethyleneimine soaked filter mats using Filtermate harvester. Scintilation cocktail is then melted onto microwave-dried filters on a hot plate and the radio activity is counted in Microbia counter.

[2] = molecular target: T2, Muscarinic acetylcholine receptor M2 (Homo sapiens) (UniProt P08172)
T2 sequence (whole entry): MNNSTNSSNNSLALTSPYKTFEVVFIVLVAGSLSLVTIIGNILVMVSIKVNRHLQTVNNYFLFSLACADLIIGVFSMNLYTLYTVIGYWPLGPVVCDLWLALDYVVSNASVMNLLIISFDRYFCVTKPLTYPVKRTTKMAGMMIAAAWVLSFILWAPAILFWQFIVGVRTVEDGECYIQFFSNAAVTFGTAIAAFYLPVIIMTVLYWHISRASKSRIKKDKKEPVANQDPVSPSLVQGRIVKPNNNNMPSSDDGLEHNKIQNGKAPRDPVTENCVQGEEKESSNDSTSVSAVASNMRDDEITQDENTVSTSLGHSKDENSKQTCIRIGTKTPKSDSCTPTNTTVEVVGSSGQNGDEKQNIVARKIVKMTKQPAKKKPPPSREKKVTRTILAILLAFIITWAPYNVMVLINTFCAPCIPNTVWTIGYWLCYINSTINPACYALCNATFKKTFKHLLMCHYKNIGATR
Description: PDSP Primary Binding target: CHRM2 - Compounds are tested at 10 uM concentration, plate are incubated at room temperature in the dark for 90 minutes. Reaction are stopped by vacuum filtration onto 0.3% polyethyleneimine soaked filter mats using Filtermate harvester. Scintilation cocktail is then melted onto microwave-dried filters on a hot plate and the radio activity is counted in Microbia counter.

[3] = molecular target: 5-hydroxytryptamine receptor 7 (Homo sapiens) (UniProt P34969)
Description: PDSP Primary Binding target: HTR7 - Compounds are tested at 10 uM concentration, plate are incubated at room temperature in the dark for 90 minutes. Reaction are stopped by vacuum filtration onto 0.3% polyethyleneimine soaked filter mats using Filtermate harvester. Scintilation cocktail is then melted onto microwave-dried filters on a hot plate and the radio activity is counted in Microbia counter.

[4] = molecular target: T3, Alpha-1B adrenergic receptor (Homo sapiens) (UniProt P35368)
T3 sequence (whole entry): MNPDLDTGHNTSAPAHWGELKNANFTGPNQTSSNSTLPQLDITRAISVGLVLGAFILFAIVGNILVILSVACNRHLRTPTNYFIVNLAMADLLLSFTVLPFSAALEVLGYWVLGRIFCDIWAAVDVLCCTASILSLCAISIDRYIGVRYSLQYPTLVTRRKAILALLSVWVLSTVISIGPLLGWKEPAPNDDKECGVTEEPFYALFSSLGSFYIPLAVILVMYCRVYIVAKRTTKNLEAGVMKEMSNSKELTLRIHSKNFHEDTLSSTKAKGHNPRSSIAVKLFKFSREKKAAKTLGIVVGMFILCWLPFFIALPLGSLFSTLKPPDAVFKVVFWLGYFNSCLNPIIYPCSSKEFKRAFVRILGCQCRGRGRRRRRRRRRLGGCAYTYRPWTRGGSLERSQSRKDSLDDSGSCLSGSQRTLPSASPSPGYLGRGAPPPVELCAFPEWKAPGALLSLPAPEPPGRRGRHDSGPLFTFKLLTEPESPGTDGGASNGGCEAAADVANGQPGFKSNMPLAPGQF
Description: PDSP Primary Binding target: ADRA1B - Compounds are tested at 10 uM concentration, plate are incubated at room temperature in the dark for 90 minutes. Reaction are stopped by vacuum filtration onto 0.3% polyethyleneimine soaked filter mats using Filtermate harvester. Scintilation cocktail is then melted onto microwave-dried filters on a hot plate and the radio activity is counted in Microbia counter.

[5] = molecular target: T4, Muscarinic acetylcholine receptor M5 (Homo sapiens) (UniProt P08912)
T4 sequence (whole entry): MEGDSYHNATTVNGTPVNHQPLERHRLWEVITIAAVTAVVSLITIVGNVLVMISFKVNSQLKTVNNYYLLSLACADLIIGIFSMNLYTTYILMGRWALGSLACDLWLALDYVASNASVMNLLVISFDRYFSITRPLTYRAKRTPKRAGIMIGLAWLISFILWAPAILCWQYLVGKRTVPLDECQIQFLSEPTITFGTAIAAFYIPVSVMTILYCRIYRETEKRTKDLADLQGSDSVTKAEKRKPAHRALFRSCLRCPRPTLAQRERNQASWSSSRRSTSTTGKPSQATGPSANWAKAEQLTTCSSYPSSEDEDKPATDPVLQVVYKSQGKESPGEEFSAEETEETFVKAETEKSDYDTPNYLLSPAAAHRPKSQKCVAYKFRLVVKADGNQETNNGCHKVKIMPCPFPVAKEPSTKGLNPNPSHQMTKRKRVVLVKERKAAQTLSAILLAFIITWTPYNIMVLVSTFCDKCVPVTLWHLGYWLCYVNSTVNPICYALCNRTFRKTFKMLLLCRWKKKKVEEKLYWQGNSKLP
Description: PDSP Primary Binding target: CHRM5 - Compounds are tested at 10 uM concentration, plate are incubated at room temperature in the dark for 90 minutes. Reaction are stopped by vacuum filtration onto 0.3% polyethyleneimine soaked filter mats using Filtermate harvester. Scintilation cocktail is then melted onto microwave-dried filters on a hot plate and the radio activity is counted in Microbia counter.

[6] = molecular target: D(3) dopamine receptor (Homo sapiens) (UniProt P35462)
Description: PDSP Primary Binding target: DRD3 - Compounds are tested at 10 uM concentration, plate are incubated at room temperature in the dark for 90 minutes. Reaction are stopped by vacuum filtration onto 0.3% polyethyleneimine soaked filter mats using Filtermate harvester. Scintilation cocktail is then melted onto microwave-dried filters on a hot plate and the radio activity is counted in Microbia counter.

[7] = molecular target: Sodium-dependent serotonin transporter (Homo sapiens) (UniProt P31645)
Description: PDSP Primary Binding target: SLC6A4 - Compounds are tested at 10 uM concentration, plate are incubated at room temperature in the dark for 90 minutes. Reaction are stopped by vacuum filtration onto 0.3% polyethyleneimine soaked filter mats using Filtermate harvester. Scintilation cocktail is then melted onto microwave-dried filters on a hot plate and the radio activity is counted in Microbia counter.

[8] = molecular target: Sodium-dependent noradrenaline transporter (Homo sapiens) (UniProt P23975)
Description: PDSP Primary Binding target: SLC6A2 - Compounds are tested at 10 uM concentration, plate are incubated at room temperature in the dark for 90 minutes. Reaction are stopped by vacuum filtration onto 0.3% polyethyleneimine soaked filter mats using Filtermate harvester. Scintilation cocktail is then melted onto microwave-dried filters on a hot plate and the radio activity is counted in Microbia counter.

[9] = molecular target: Sigma non-opioid intracellular receptor 1 (Homo sapiens) (UniProt Q99720)
Description: PDSP Primary Binding target: SIGMAR1 - Compounds are tested at 10 uM concentration, plate are incubated at room temperature in the dark for 90 minutes. Reaction are stopped by vacuum filtration onto 0.3% polyethyleneimine soaked filter mats using Filtermate harvester. Scintilation cocktail is then melted onto microwave-dried filters on a hot plate and the radio activity is counted in Microbia counter.

[10] = molecular target: Delta-type opioid receptor (Homo sapiens) (UniProt P41143)
Description: PDSP Primary Binding target: OPRD1 - Compounds are tested at 10 uM concentration, plate are incubated at room temperature in the dark for 90 minutes. Reaction are stopped by vacuum filtration onto 0.3% polyethyleneimine soaked filter mats using Filtermate harvester. Scintilation cocktail is then melted onto microwave-dried filters on a hot plate and the radio activity is counted in Microbia counter.

[11] = molecular target: Muscarinic acetylcholine receptor M3 (Homo sapiens) (UniProt P20309)
Description: PDSP Primary Binding target: CHRM3 - Compounds are tested at 10 uM concentration, plate are incubated at room temperature in the dark for 90 minutes. Reaction are stopped by vacuum filtration onto 0.3% polyethyleneimine soaked filter mats using Filtermate harvester. Scintilation cocktail is then melted onto microwave-dried filters on a hot plate and the radio activity is counted in Microbia counter.

[12] = molecular target: 5-hydroxytryptamine receptor 2A (Homo sapiens) (UniProt P28223)
Description: PDSP Primary Binding target: HTR2A - Compounds are tested at 10 uM concentration, plate are incubated at room temperature in the dark for 90 minutes. Reaction are stopped by vacuum filtration onto 0.3% polyethyleneimine soaked filter mats using Filtermate harvester. Scintilation cocktail is then melted onto microwave-dried filters on a hot plate and the radio activity is counted in Microbia counter.

[13] = molecular target: T5, 5-hydroxytryptamine receptor 2C (Homo sapiens) (UniProt P28335)
T5 sequence (whole entry): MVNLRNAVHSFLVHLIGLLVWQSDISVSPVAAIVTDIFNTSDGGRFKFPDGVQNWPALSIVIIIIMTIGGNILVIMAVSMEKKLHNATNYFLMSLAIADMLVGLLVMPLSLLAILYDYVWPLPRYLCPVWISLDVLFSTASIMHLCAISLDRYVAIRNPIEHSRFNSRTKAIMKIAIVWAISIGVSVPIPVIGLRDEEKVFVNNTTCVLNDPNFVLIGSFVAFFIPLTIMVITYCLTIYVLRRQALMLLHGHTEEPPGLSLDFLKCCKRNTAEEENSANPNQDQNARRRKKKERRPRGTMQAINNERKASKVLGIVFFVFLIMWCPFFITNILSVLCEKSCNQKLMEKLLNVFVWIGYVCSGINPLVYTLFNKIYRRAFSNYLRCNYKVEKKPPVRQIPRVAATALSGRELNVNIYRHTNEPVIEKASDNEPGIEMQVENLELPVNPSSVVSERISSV
Description: PDSP Primary Binding target: HTR2C - Compounds are tested at 10 uM concentration, plate are incubated at room temperature in the dark for 90 minutes. Reaction are stopped by vacuum filtration onto 0.3% polyethyleneimine soaked filter mats using Filtermate harvester. Scintilation cocktail is then melted onto microwave-dried filters on a hot plate and the radio activity is counted in Microbia counter.

Sequence of Sigma non-opioid intracellular receptor 1 (Homo sapiens) (Q99720 whole entry): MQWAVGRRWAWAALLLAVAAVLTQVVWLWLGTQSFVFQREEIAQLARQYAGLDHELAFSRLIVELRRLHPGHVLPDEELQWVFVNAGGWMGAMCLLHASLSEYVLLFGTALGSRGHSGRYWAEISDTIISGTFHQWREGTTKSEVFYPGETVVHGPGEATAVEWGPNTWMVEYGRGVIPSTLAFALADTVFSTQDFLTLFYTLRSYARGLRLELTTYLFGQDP
Sequence of Sodium-dependent serotonin transporter (Homo sapiens) (P31645 whole entry, looked up): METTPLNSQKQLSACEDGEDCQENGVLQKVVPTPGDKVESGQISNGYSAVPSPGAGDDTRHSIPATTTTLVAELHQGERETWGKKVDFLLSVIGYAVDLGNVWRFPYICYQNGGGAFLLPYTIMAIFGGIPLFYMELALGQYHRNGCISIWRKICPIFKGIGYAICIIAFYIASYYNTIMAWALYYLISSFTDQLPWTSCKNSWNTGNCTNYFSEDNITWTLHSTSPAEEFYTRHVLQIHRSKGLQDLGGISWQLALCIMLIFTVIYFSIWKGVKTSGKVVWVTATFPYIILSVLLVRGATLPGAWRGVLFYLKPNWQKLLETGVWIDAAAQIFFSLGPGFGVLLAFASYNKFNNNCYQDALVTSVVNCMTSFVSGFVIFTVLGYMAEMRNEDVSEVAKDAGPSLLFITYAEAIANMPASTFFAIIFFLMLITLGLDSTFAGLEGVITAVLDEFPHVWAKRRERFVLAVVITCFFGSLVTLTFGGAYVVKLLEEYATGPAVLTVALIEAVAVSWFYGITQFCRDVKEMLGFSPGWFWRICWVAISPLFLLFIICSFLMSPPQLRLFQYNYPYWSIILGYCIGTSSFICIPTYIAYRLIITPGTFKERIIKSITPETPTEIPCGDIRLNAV
Sequence of Delta-type opioid receptor (Homo sapiens) (P41143 whole entry): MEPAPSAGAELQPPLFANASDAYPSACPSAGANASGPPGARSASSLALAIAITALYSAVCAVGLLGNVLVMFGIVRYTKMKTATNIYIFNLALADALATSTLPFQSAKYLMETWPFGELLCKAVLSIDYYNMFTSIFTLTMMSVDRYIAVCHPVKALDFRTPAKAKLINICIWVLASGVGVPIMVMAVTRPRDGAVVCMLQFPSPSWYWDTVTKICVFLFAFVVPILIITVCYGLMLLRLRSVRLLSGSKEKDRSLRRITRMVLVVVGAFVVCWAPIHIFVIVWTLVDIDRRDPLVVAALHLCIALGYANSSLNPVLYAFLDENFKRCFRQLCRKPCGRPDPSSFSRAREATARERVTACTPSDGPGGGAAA
Sequence of Muscarinic acetylcholine receptor M3 (Homo sapiens) (P20309 whole entry, looked up): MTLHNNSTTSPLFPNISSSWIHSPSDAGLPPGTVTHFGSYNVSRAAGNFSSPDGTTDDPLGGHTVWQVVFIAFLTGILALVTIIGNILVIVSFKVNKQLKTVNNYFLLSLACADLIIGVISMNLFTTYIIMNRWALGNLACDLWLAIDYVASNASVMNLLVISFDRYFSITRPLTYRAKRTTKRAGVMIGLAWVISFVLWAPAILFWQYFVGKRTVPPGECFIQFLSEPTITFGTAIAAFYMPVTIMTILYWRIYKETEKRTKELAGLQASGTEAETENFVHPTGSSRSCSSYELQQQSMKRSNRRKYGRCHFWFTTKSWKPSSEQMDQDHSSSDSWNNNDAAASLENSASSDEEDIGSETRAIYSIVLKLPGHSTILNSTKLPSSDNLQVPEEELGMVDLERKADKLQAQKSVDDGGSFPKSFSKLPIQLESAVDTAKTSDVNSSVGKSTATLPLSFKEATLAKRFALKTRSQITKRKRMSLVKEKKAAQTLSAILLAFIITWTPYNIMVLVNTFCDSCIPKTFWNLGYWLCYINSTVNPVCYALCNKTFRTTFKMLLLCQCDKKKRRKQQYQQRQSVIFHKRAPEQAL
Sequence of 5-hydroxytryptamine receptor 7 (Homo sapiens) (P34969 whole entry): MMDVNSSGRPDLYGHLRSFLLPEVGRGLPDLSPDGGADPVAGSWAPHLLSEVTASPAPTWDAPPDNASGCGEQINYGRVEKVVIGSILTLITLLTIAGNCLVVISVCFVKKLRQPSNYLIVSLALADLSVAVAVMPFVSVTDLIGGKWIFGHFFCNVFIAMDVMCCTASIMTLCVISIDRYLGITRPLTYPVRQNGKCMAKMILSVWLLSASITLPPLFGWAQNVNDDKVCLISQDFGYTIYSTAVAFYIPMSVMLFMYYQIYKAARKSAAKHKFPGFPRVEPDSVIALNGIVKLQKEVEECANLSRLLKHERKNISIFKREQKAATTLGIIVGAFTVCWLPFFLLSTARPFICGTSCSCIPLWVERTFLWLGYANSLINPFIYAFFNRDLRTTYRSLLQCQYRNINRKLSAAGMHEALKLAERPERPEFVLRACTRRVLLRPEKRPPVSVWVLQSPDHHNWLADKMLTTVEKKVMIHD
Sequence of Sodium-dependent noradrenaline transporter (Homo sapiens) (P23975 whole entry): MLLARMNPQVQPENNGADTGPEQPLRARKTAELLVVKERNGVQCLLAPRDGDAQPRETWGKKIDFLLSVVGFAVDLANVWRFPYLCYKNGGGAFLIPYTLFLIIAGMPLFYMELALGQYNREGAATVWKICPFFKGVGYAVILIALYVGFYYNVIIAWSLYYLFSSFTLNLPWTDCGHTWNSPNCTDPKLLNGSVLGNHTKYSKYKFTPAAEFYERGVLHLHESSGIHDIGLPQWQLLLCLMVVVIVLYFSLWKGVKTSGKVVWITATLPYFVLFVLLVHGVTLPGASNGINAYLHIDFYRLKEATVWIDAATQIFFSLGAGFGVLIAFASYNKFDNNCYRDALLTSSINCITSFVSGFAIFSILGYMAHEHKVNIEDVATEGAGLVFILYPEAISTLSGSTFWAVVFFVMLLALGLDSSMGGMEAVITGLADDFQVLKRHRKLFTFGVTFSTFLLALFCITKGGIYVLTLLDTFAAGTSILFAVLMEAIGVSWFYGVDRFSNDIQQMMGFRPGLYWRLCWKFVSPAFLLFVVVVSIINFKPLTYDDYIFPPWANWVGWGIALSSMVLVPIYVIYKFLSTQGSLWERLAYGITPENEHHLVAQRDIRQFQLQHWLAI
Sequence of D(3) dopamine receptor (Homo sapiens) (P35462 whole entry): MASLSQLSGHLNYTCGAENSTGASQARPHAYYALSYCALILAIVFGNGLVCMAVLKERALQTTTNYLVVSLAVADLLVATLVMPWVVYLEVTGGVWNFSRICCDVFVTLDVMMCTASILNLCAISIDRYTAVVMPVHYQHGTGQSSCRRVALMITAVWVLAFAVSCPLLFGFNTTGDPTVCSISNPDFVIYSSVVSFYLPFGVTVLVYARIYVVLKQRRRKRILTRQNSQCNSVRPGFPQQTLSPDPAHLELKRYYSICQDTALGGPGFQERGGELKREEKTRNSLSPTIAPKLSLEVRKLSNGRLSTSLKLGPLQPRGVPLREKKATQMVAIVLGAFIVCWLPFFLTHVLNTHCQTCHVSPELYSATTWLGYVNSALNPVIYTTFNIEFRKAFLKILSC
Sequence of 5-hydroxytryptamine receptor 2A (Homo sapiens) (P28223 whole entry): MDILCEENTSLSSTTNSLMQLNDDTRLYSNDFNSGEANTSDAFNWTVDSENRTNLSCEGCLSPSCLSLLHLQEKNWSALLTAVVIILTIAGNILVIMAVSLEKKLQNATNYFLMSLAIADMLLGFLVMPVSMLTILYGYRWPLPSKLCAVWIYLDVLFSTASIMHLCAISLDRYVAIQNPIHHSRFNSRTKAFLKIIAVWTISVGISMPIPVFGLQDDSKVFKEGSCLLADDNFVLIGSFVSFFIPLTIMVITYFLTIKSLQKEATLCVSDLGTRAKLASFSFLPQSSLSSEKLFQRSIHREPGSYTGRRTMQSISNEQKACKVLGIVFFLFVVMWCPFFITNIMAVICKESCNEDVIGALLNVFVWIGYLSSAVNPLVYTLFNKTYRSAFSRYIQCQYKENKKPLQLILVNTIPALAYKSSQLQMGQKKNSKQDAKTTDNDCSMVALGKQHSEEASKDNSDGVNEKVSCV

COc1cccc([C@H](O)C2CCN(CCc3ccc(F)cc3)CC2)c1OC
inhibition [1]: 9.53% | inhibition [2]: 1.5% | inhibition [3]: 34.5% | inhibition [4]: 57.3% | inhibition [5]: -8.31% | inhibition [6]: 9.18% | inhibition [7]: 27.2% | inhibition [8]: 45.2% | inhibition [9]: 3.05% | inhibition [10]: 4.4% | inhibition [11]: -8.67%

CC(C)NCC(O)COc1ccc(CCOCC2CC2)cc1 (configuration not stated)
inhibition [1]: -0.24% | inhibition [12]: 8.23% | inhibition [2]: -4.15% | inhibition [4]: 19.5% | inhibition [5]: 0.46% | inhibition [6]: 5.81% | inhibition [7]: -2.29% | inhibition [8]: 45.1% | inhibition [9]: 91.7% | inhibition [10]: 3.69% | inhibition [11]: 1.59%

CC[C@@H]1CN2C(=O)N(C)c3nc(-c4ccccc4)[nH]c3C2=N1
inhibition [13]: 14.2% | inhibition [12]: 53.6% | inhibition [2]: -8.11% | inhibition [3]: 21.6% | inhibition [4]: -5.35% | inhibition [6]: 27.9% | inhibition [7]: -6.29% | inhibition [8]: 19.5% | inhibition [9]: 64.2% | inhibition [10]: -7.99% | inhibition [11]: -6.97%

Cc1cc(C(=O)N2Cc3cnn(C)c3Nc3ccccc32)ccc1CNC(=O)N1CCC[C@H]1C(=S)N1CCCN(C)CC1
inhibition [1]: 25.9% | inhibition [13]: -8.65% | inhibition [12]: 9.68% | inhibition [2]: 68.4% | inhibition [3]: 0.75% | inhibition [4]: -2.71% | inhibition [5]: 83.3% | inhibition [6]: 87.3% | inhibition [7]: -2.9% | inhibition [9]: -7.44% | inhibition [11]: 65.2%

CCCCCCCCCCCCCCCCOC[C@H](COP(=O)([O-])OCC[N+](C)(C)C)OC(C)=O
inhibition [13]: 67.9% | inhibition [12]: 2.23% | inhibition [2]: -4.25% | inhibition [3]: -1.59% | inhibition [4]: 71.6% | inhibition [6]: 72.5% | inhibition [7]: 0.76% | inhibition [9]: 7.97% | inhibition [10]: 43.7% | inhibition [11]: 19.2%

CCOC(=O)c1c(C)[nH]c2ccc3c(c12)CN1CCc2cc(OC)ccc2C1O3 (configuration not stated)
inhibition [1]: 75.4% | inhibition [12]: 28.7% | inhibition [2]: 22.6% | inhibition [3]: 9.23% | inhibition [4]: 27.5% | inhibition [5]: 2.39% | inhibition [6]: 44.2% | inhibition [7]: 6.67% | inhibition [8]: 51% | inhibition [9]: 29.3% | inhibition [10]: -2.17% | inhibition [11]: 69.2%

C[C@@H](NCCc1ccc(O)cc1)[C@@H](O)c1ccc(O)cc1 (relative stereo)
inhibition [13]: -0.38% | inhibition [12]: 5.36% | inhibition [2]: 3.91% | inhibition [4]: 21.4% | inhibition [5]: -3.49% | inhibition [6]: 34.6% | inhibition [7]: 52.3% | inhibition [8]: 51.8% | inhibition [9]: 75% | inhibition [10]: 17.5% | inhibition [11]: 18.1%

CCCCCNC(=N)N/N=C/c1c[nH]c2ccc(OC)cc12
inhibition [1]: 70.2% | inhibition [13]: 92.8% | inhibition [12]: 93.7% | inhibition [2]: 38.2% | inhibition [3]: 93.6% | inhibition [4]: 62.5% | inhibition [5]: 8.93% | inhibition [6]: 70% | inhibition [7]: 57.7% | inhibition [9]: 96.6% | inhibition [10]: 12.6% | inhibition [11]: 7.96%

O=c1ccn([C@@H]2O[C@H](COP(=O)(O)OP(=O)(O)O)[C@@H](O)[C@H]2O)c(=O)[nH]1
inhibition [13]: 3.57% | inhibition [12]: 10.7% | inhibition [2]: 15.9% | inhibition [4]: -6.51% | inhibition [5]: -9.39% | inhibition [6]: 7.98% | inhibition [7]: 21.1% | inhibition [8]: 13.7% | inhibition [9]: 4.23% | inhibition [10]: 14.1% | inhibition [11]: 2.51%

C[C@@H](N)Cc1c[nH]cn1
inhibition [1]: 5.88% | inhibition [13]: 5.48% | inhibition [12]: -2.41% | inhibition [2]: -5.01% | inhibition [3]: 3.45% | inhibition [5]: -5.67% | inhibition [6]: 8.41% | inhibition [7]: 6.49% | inhibition [8]: -7.81% | inhibition [9]: 20.9% | inhibition [11]: -7.33%

Oc1ccc2c3c1O[C@H]1c4[nH]c5c(c4C[C@@]4(O)[C@@H](C2)N(CC2CC2)CC[C@]314)C[C@@]1(O)[C@H]2Cc3ccc(O)c4c3[C@@]1(CCN2CC1CC1)[C@H]5O4
inhibition [1]: 6.54% | inhibition [13]: 10.5% | inhibition [12]: 18.3% | inhibition [2]: 0.51% | inhibition [4]: -1.68% | inhibition [5]: -0.25% | inhibition [6]: 4.68% | inhibition [7]: -6.45% | inhibition [8]: 12.7% | inhibition [9]: 9.49% | inhibition [10]: 93.5% | inhibition [11]: 3.43%

C[C@@H](NCCCc1cccc(C(F)(F)F)c1)c1cccc2ccccc12
inhibition [1]: 15.4% | inhibition [13]: 72.6% | inhibition [12]: 80.6% | inhibition [2]: 42% | inhibition [3]: 51.6% | inhibition [4]: 53.8% | inhibition [5]: 7.94% | inhibition [6]: 94.4% | inhibition [7]: 62.7% | inhibition [8]: 60.8% | inhibition [11]: 25.8%

O=C(Cc1ccc(Cl)c(Cl)c1)N1CCCC[C@H]1CN1CCCC1
inhibition [1]: 5.92% | inhibition [13]: -3.64% | inhibition [12]: 6.03% | inhibition [2]: 12% | inhibition [3]: 31.1% | inhibition [4]: 11.4% | inhibition [6]: 18.5% | inhibition [7]: 33.9% | inhibition [8]: 23.7% | inhibition [9]: 94.7% | inhibition [10]: 17.6%

CN1C2CCC1CC(OC(c1ccc(F)cc1)c1ccc(F)cc1)C2 (configuration not stated)
inhibition [1]: 79.5% | inhibition [13]: 92.9% | inhibition [12]: 99.6% | inhibition [2]: 111% | inhibition [3]: 92.4% | inhibition [4]: 96.5% | inhibition [5]: 94.5% | inhibition [6]: 79.5% | inhibition [7]: 15.4% | inhibition [8]: 102% | inhibition [9]: 93.6% | inhibition [11]: 95.9%
